Measured values taken from patent US20030082229A1, “Parenteral chlorambucil for treatment of malignant and autoimmune disease and methods of use” (priority 2001, published 2003).
“Also recorded” adds a separate entry of the source. Read-outs that look alike come from different tables or passages of the source.

Experiments:
[1] = IV CLB pharmacology in beagle dogs; format: in vivo
Procedure: The CLB given to beagle dogs was prepared as above. The same general design of the experiment was used, except that the dogs received a maximum dose of 7.5 mg/kg BW through a cephalic vein catheter, and the drug was delivered under general anesthesia.
Blood samples (0.5-1.0 ml) were drawn in heparinized tubes at selected time points prior to the drug infusion (“blank”), and from 5 min to 6 hours after drug injection for determination of CLB concentrations. The samples were obtained through cardiac puncture under light CO2 anesthesia in the rats and through a prepositioned cephalic vein catheter in the dogs. The blood was centrifuged at 1,000×g for 10 min, and the plasma was removed and stored at−80° C. until extracted and assayed by HPLC.

[2] = cited from earlier work
[3] = test system: HL-60 human myeloid leukemia cell line; assay: In vitro clonogenic cytotoxicity assay, HL-60; format: cell-based; conditions: acetone positive control
Procedure: (§1) The cytotoxic potential of selected solvent systems with and without CLB was determined against the two human myeloid leukemia cell lines (HL-60) (Gallagher R. Collins S, Trujillo et al: Characterization of the continuously differentiating myeloid cell line (HL-60) from a patient with acute promyelocytic leukemia. BLOOD 54:254-68, 1979) and human myeloid leukemia cell line (KBM-7/B5) (Andersson B S, Beran M, Pathak S, et al: Ph-positive chronic leukemia with near-haploid conversion in vivo and establishment of a continuously growing cell line with similar cytogenetic pattern. CANCER GENETICS AND CYTOGENET 24:335-43, 1987; Andersson B S, Collins V P, Kurzrock R, et al: KBM-7; human myeloid leukemia cell line with double Philadelphia chromosomes but lacking normal BCR and c-ABL transcripts. LEUKEMIA, 9:2100-2108, 1995). Briefly, HL-60 or KBM-7/B5 cells were suspended at a density of 5,000 cells per ml in Iscove's modified Dulbecco medium (IMDM) supplemented with 20% fetal bovine serum (FBS) and 0.3% agar as viscous support. […] Clones of>50 cells were counted under an inverted phase contrast microscope, and survival curves were constructed as described (Andersson B S, Mroue M, Britten R A, Murray D: The role of DNA damage in the resistance of human chronic myeloid leukemia cells to cyclophosphamide analogs. CANCER RESEARCH 54:5394-5400, 1994).

[4] = test system: erythrocytes; assay: Hemolysis studies in vitro; format: cell-based; conditions: drug concentrations of 100 μg/ml or more
Source text: The procedure of Parthasarathy et al. was used to examine the hemolytic potential of a few selected formulations of the present invention, and the LD50 (concentration that results in 50% lethality or destruction of a population) values of the most optimal formulation was constructed as previously described (Parthasarathy R, Sacks P G, Harris D, et al: Interaction of liposome-associated all-trans-retinoic acid with squamous carcinoma cells. CANCER CHEMOTHER. PHARMACOL. 34:527-34, 1994). Briefly, heparinized blood was mixed with an equal volume of Alsever's solution. This mixture was washed twice in phosphate-buffered saline (PBS), and a 10% (volume per volume, v/v) erythrocyte/PBS solution was then prepared and mixed with increasing amounts of the solvent (prototype EtOH/lipid solvent vehicle and NS) with or without addition of CLB. These resulting mixtures were incubated for 4 hours at 37° C. At the end of the incubation, the cells were pelleted at 10,000×g in an Eppendorf micro-centrifuge, and after washing twice in NS, the pellet was resuspended and lysed using distilled water. The release of hemoglobin in the supernatant (i.e., hemolysis) was determined spectrophotometrically at a wavelength of 550 nm. […]
The hemolytic potential of the formulations (EtOH/lipid/CLB/NS) were evaluated as described. […]

[5] = test system: KBM-7/B5 human myeloid leukemia cell line; assay: In vitro clonogenic cytotoxicity assay, KBM-7/B5; format: cell-based; conditions: acetone positive control
Procedure: as §1

[6] = physchem; format: physicochemical
Procedure: The solubility of CLB was determined in several individual vehicles. Briefly, a known amount of CLB drug, formulated as a powder (Sigma, St Louis, Mo.), was equilibrated in the respective solvent at RT over 1-4 hours. An aliquot was removed, filtered, and diluted in methanol (MeOH) before high-pressure liquid chromatography (HPLC) to determine solubility at predetermined times. Based on the CLB solubility in each vehicle, different solvents were mixed according to the cosolvency principle in an attempt to enhance the stable solubility (Spiegel A. J., Noseworthy M. N.: Use of nonaqueous solvents in parenteral products. J. PHARM. SCI. 52:917-927, 1963; Yalkowsky S. H., Roseman T. J.: Solubilization of drugs by cosolvents. In: Yalkowsky S. H. (Ed.): TECHNIQUES OF SOLUBILIZATION OF DRUGS. pp. 91-134. Marcel Dekker Inc., New York, N.Y. 1981).
An excess of CLB as a powder was added to DMSO, PEG, and PG at RT. Each mixture was placed in a dark environment and checked visually for up to 4 hours for evidence of solubilization. Samples of 1 ml were taken at various time intervals. The CLB concentration was then determined by HPLC after filtration through a 0.45 μm polytetrafluoroethylene (PTFE) membrane filter (Autovial®) fitted to a syringe assembly (Whatman Inc., Springfield Mill, Maidstone, Kent, UK).

**Q.** What does the source list for `O=C(O)CCCc1ccc(N(CCCl)CCCl)cc1` [CLB, 4-[Bis(2-chloroethyl)amino]benzenebutanoic acid]?
**A.** CLB plasma concentrations after IV injection, beagles ([1]; 7.5 mg/kg BW IV): detectable, cytotoxic CLB plasma concentrations; also recorded: for several hours remained in the cytotoxic range; also recorded: maintained for several hours; Tolerability of injection, beagles ([1]; 7.5 mg/kg BW IV): well accepted; Neurological effect, no premedication ([1]; 7.5 mg/kg BW IV, dogs): generalized seizure; also recorded: caused seizures; Neurological effect, premedicated with diphenylhydantoin ([1]; 7.5 mg/kg BW IV, two dogs): tolerated the CLB administration without any obvious neurological effects; half-life ([1]; dog, plasma, IV, this formulation, FIG. 7 beagle 7.5 mg/kg, read-out: Apparent terminal half-life): ~1 h; Dose at which dose-limiting neurological toxicity is manifested ([2]; oral, intermittent schedule, confusion, generalized seizures): ≥ 100 mg/m^2 BSA; Terminal half-life in blood ([2]; taken by mouth): approximately 60 minutes; Cytotoxic activity in the formulation vs CLB dissolved in acetone, HL-60 [3]: retained full cytotoxic activity; CLB-dependent lysis [4]: barely exceeded background; Cytotoxic activity in the formulation vs CLB dissolved in acetone, KBM-7/B5 [5]: retained full cytotoxic activity; solubility ([6]; DMSO, organic solvent or mixture, thermodynamic from solid, DMSO, RT, read-out: CLB solubility (maximum equilibrium concentration) in DMSO): > 100 mg/mL; solubility at 1 h ([6]; EtOH, organic solvent or mixture, thermodynamic from solid, EtOH, within 1 hour at RT, read-out: CLB solubility (maximum equilibrium concentration) in EtOH): > 100 mg/mL; CLB solubility in aqueous solvents ([6]; NS, 5% dextrose in water, soybean lipid emulsion (Intralipid)): virtually insoluble; Solubilized CLB in PEG-400, PG, NS, 20% soybean lipid emulsion, 5% dextrose ([6]; RT): did not yield any significant concentrations of solubilized drug; solubility ([6]; prototype EtOH/lipid solvent vehicle, aqueous with cosolvent or surfactant or cyclodextrin, thermodynamic from solid, EtOH/emulsified soybean oil vehicle, read-out: CLB solubility in prototype EtOH/lipid solvent vehicle): ≥ 100 mg/mL
